Laboratory results reported in a melting point compilation (Tetko et al.).

For `Cc1cccc(NC(=O)CCCCl)c1`, the melting point was 137 to 139 °C.
In the case of `NC(=NO)c1cccc(Br)c1`, the melting point is reported as 132 to 134 °C.
`Cc1nn(Cc2cccc(Br)c2)cc1C(=O)O` gave a melting point of 164 to 166 °C.
In the case of `Fc1ccc(-n2c(S)nc3ccccc32)cc1`, the melting point is reported as 237 to 239 °C.
With `Cc1cccc(OCCNC(=O)C(C)Cl)c1` (configuration not stated) the melting point was 57 to 59 °C.
Compound `O=C(CBr)c1ccc(S(=O)(=O)N2CCCCCC2)cc1` has a melting point of 70 to 72 °C.
Compound `O=S(=O)(O)c1ccc2c(c1)CCCO2` has a melting point of 80 to 82 °C.
With `COC(=O)c1cc(CBr)cc(C(=O)OC)c1` the melting point was 139 to 141 °C.
With `COc1ccc(C(=O)O)cc1S(N)(=O)=O` the melting point was 283 to 285 °C.
`CS(=O)(=O)NCC(=O)c1ccccc1` showed a melting point of 113 to 115 °C.
`Cc1nc2ccccc2n1CCO` showed a melting point of 147 to 149 °C.
`Cc1ccc(-n2nc(C(=O)O)cc2C)cc1` showed a melting point of 149 to 151 °C.
For `CCN(CC)c1nc2ccccc2[nH]c1=O`, the melting point was 151 to 153 °C.
For `CCOc1ccc(C(N)=O)cn1`, the melting point was 179 to 181 °C.
With `NNC(=O)Nc1cccc(Cl)c1` the melting point was 107 to 109 °C.
For `Nc1ccc(CN2C(=O)Cc3ccc(Cl)cc32)cc1`, the melting point was 129 to 131 °C.
Work on `O=c1cccn[nH]1` yielded a melting point of 94 to 98 °C.
`O=C(CCl)c1c[nH]c(C(=O)N2CCCC2)c1` gave a melting point of 200 to 204 °C.
With `COc1ccc(OC)c(C=NO)c1` the melting point was 94 to 96 °C.
Work on `COc1cccc2cc(C=O)oc12` yielded a melting point of 45 to 47 °C.
With `CN(CC12CC3CC(CC(C3)C1)C2)C(=O)CCl` the melting point was 52 to 54 °C.
With `Cc1cccc(CNC(=O)CCl)c1` the melting point was 71 to 73 °C.
`O=C1COc2cccc(F)c2N1` showed a melting point of 172 to 174 °C.
Work on `c1ccc2oc(N3CCNCC3)nc2c1` yielded a melting point of 74 to 76 °C.
`O=C(O)CNS(=O)(=O)c1c[nH]c2ncccc12` gave a melting point of 273 to 275 °C.
Compound `CC(=O)c1ccc(S(=O)(=O)N2CCCCCC2)cc1` has a melting point of 73 to 77 °C.
`COc1ccnc(NCc2cccc(C(=O)O)c2)n1` gave a melting point of 219 to 221 °C.
For `FC(F)(F)CNc1ccncc1`, the melting point was 157 to 159 °C.
In the case of `CC1(c2ccc(Br)cc2)CC(=O)NC1=O` (configuration not stated), the melting point is reported as 144 to 146 °C.
Work on `CN(C)c1cc(C#N)ccn1` yielded a melting point of 69 to 71 °C.
Work on `CCOC(=O)c1cnc2ccc(Cl)cn2c1=O` yielded a melting point of 137 to 139 °C.
With `O=C(O)CCNc1ncc(C(F)(F)F)cc1Cl` the melting point was 131 to 133 °C.
`COc1cc(OC)cc(C(N)c2nccn2C)c1` (configuration not stated) showed a melting point of 99 to 101 °C.
In the case of `Cc1[nH]n(-c2ccc(Cl)c(Cl)c2)c(=N)c1C`, the melting point is reported as 156 to 158 °C.
For `CCOC(=O)c1cc(Br)ccc1N`, the melting point was 79 to 81 °C.
Work on `Cn1nnc2ccc(C(=O)O)cc21` yielded a melting point of 271 to 273 °C.
For `CCCCNc1nnc(C)c2ccccc12`, the melting point was 74 to 76 °C.
Work on `COc1ccc2c(-c3ccccc3)cc(S)nc2c1` yielded a melting point of 180 to 182 °C.
Work on `CC(CC(=O)O)c1ccc(Br)cc1` (configuration not stated) yielded a melting point of 101 to 103 °C.
In the case of `COC(=O)c1cc(CCl)c(C)s1`, the melting point is reported as 54 to 56 °C.
In the case of `O=S(=O)(Cl)c1ccc(OCC(F)(F)F)nc1`, the melting point is reported as 55 to 57 °C.
`C1CCc2nnc(C3CCCNC3)n2CC1` (configuration not stated) showed a melting point of 171 to 173 °C.
Work on `Cc1c(C(=O)O)sc2[nH]cnc(=S)c12` yielded a melting point of 309 to 311 °C.
For `COCC(C)n1cc(C(=O)O)c(C)n1` (configuration not stated), the melting point was 114 to 116 °C.
`CC1C=CC2C(=O)N(C(C)C)C(=O)C2C1C(=O)O` (configuration not stated) showed a melting point of 149 to 151 °C.
Work on `Cc1cccc(OCCNc2ccc(F)cc2N)c1` yielded a melting point of 76 to 78 °C.
Compound `O=C(C1CCCCC1)N1CCNCC1` has a melting point of 86 to 88 °C.
`CCOC(=O)Nc1ccc2c(CCl)cc(=O)oc2c1` showed a melting point of 247 to 249 °C.
`COc1cc(C=O)cc(Cl)c1OCC(N)=O` gave a melting point of 166 to 170 °C.
`CCCNC(=O)C1CNc2ccccc2O1` (configuration not stated) showed a melting point of 129 to 131 °C.
In the case of `CC(C)(C)OC(=O)NC1(C#N)CCCC1`, the melting point is reported as 106 to 108 °C.
Work on `COc1ccc(C(=O)c2ccc(OC)cc2OC)cc1` yielded a melting point of 69 to 73 °C.
`CC(N)c1ccc(S(N)(=O)=O)cc1` (configuration not stated) gave a melting point of 148 to 150 °C.
With `O=C(O)C1CCCN1C(=O)C12CC3CC(CC(C3)C1)C2` (configuration not stated) the melting point was 193 to 195 °C.
`CC(C)c1ccc(-c2nnn[nH]2)cc1` gave a melting point of 186 to 188 °C.
For `O=Cc1cccnc1Cl`, the melting point was 50 to 54 °C.
In the case of `CCNc1nc(C)c(C(=O)O)s1`, the melting point is reported as 171 to 173 °C.
`O=C(O)C1CC(c2cc(F)ccc2F)=NO1` (configuration not stated) showed a melting point of 135 to 137 °C.
Compound `CC(C)S(=O)(=O)Cc1ccc(N)cc1` has a melting point of 134 to 136 °C.
Work on `O=C(O)c1cc(C2CC2)nc2ccc(F)cc12` yielded a melting point of 196 to 198 °C.
With `CN(C)CCNC(=O)Cc1ccc(N)cc1` the melting point was 145 to 147 °C.
Compound `O=C(O)C1CCCN(C(=O)c2ccc(Br)c(F)c2)C1` (configuration not stated) has a melting point of 157 to 159 °C.
`N#Cc1cccc(Oc2ccc(Cl)cc2)n1` showed a melting point of 86 to 88 °C.
In the case of `CC(Cl)C(=O)Nc1ccc(NC(=O)c2cccs2)cc1` (configuration not stated), the melting point is reported as 227 to 229 °C.
Work on `COc1cc([N+](=O)[O-])ccc1I` yielded a melting point of 127 to 129 °C.
For `CCn1nc(C(C)C)cc1C(=O)O`, the melting point was 115 to 117 °C.
`COc1cc(C(=O)O)c([N+](=O)[O-])cc1OCC1CCCO1` (configuration not stated) gave a melting point of 159 to 161 °C.
`Cn1ccnc1-c1ccc([N+](=O)[O-])cc1` gave a melting point of 107 to 109 °C.
For `COC(=O)c1c(N)sc2c1CCC2`, the melting point was 149 to 151 °C.
With `O=C(O)Cc1csc(-c2ccc(F)c(F)c2)n1` the melting point was 202 to 204 °C.
For `COc1ccc(N2CC(C(=O)O)CC2=O)c(OC)c1` (configuration not stated), the melting point was 183 to 185 °C.
With `Cn1ncnc1COc1ccc(S(N)(=O)=O)cc1` the melting point was 176 to 178 °C.
